Experimental data published in patent US7776847B2, “Benzisothiazoles useful for treating or preventing HCV infection” (priority 2005, dated 2010).
Where two headings read alike, the source gives them in different places.

Test system: HCV replicon
Test: HCV replicon luciferase reporter assay
Format: cell-based
Parameters: scale not given here
Experimental: The inhibitory activity of certain exemplary compounds of the invention was confirmed using an HCV replicon assay. The HCV replicon can include such features as the HCV IRES, the HCV 3′ untranslated region, selected HCV genes encoding HCV polypeptides, selectable markers, and a reporter gene such as luciferase, GFP, etc. In the assay, actively dividing replicon-comprising cells were seeded at a density of between about 5,000 and 7,500 cells/well onto 96 well plates (about 90 μl of cells per well) and incubated at 37° C. and 5% CO2 for 24 hours. Then, the test compound (in a volume of about 10 μL) was added at various concentrations to each well and the cells were incubated for an additional 24-48 hours. The cells were harvested, and HCV replication or translation was monitored via a reporter assay, e.g., a luciferase reporter assay. The media was aspirated from each cell and Bright-Glo ([…].) luciferase assay reagents were added to each well according to the manufacturer's instructions. In this assay, the amount of test compound that yielded a 50% reduction in luciferase activity (IC50) was determined.

[1] = Hepatitis C virus, Table 5, read-out: IC50
[2] = Table 5, the head prints only IC50, b387 says Tables 5 and 6 hold Replicon reporter and Western blot results

For O=[N+]([O-])c1cccc(S(=O)(=O)NCCCNc2nsc3ccccc23)c1 [Compound 242, N-(3-(benzo[d]isothiazol-3-ylamino)propyl)-3-nitrobenzenesulfonamide], which IC50 [1] is on record?
The IC50 was < 5 µM.

For COC(=O)c1ccccc1S(=O)(=O)NCCCNc1nsc2ccccc12 [Compound 243, methyl 2-(N-(3-(benzo[d]isothiazol-3-ylamino)propyl)sulfamoyl)benzoate], which IC50 [1] is on record?
The IC50 was < 5 µM.

Which IC50 [1] does the source give for COC(=O)c1ccc(S(=O)(=O)NCCCNc2nsc3ccccc23)o1 [Compound 244, methyl 5-(N-(3-(benzo[d]isothiazol-3-ylamino)propyl)sulfamoyl)furan-2-carboxylate] here?
The IC50 was < 5 µM.

How did the IC50 [1] turn out when O=S(=O)(NCCCNc1nsc2ccccc12)c1ccc(C(F)(F)F)cc1 [Compound 245, N-(3-(benzo[d]isothiazol-3-ylamino)propyl)-4-(trifluoromethyl)benzenesulfonamide] was run?
Its IC50 is < 5 µM.

With O=S(=O)(NCCCNc1nsc2ccccc12)c1cc(C(F)(F)F)cc(C(F)(F)F)c1 [Compound 246, N-(3-(benzo[d]isothiazol-3-ylamino)propyl)-3,5-bis(trifluoromethyl)benzenesulfonamide] as the compound, how does the IC50 [1] read?
Its IC50 is < 5 µM.

How did the IC50 [1] turn out when Cc1nc(S(=O)(=O)NCCCNc2nsc3ccccc23)cn1C [Compound 248, N-(3-(benzo[d]isothiazol-3-ylamino)propyl)-1,2-dimethyl-1H-imidazole-4-sulfonamide] was run?
The IC50 was < 5 µM.

O=S(=O)(NCCCNc1nsc2ccccc12)c1cccc2cccnc12 [Compound 249, N-(3-(benzo[d]isothiazol-3-ylamino)propyl)quinoline-8-sulfonamide] was tested. Which IC50 [1] did it give?
Its IC50 is < 5 µM.

For O=S(=O)(NCCCNc1nsc2ccccc12)c1ccc(F)c(F)c1F [Compound 250, N-(3-(benzo[d]isothiazol-3-ylamino)propyl)-2,3,4-trifluorobenzenesulfonamide], which IC50 [1] is on record?
Its IC50 is < 5 µM.

COc1ccc(S(=O)(=O)NCCCNc2nsc3ccccc23)cc1 [Compound 251, N-(3-(benzo[d]isothiazol-3-ylamino)propyl)-4-methoxybenzenesulfonamide] was tested. Which IC50 [1] did it give?
The IC50 was < 5 µM.

For O=C(N1CCc2ccc(S(=O)(=O)NCCCNc3nsc4ccccc34)cc2C1)C(F)(F)F [Compound 252, N-(3-(benzo[d]isothiazol-3-ylamino)propyl)-2-(2,2,2-trifluoroacetyl)-1,2,3,4-tetrahydroisoquinoline-7-sulfonamide], which IC50 (Hepatitis C virus) is on record?
The IC50 was < 5 µM.

With O=S(=O)(NCCCNc1nsc2ccccc12)c1c(F)cc(F)cc1Br [Compound 253, N-(3-(benzo[d]isothiazol-3-ylamino)propyl)-2-bromo-4,6-difluorobenzenesulfonamide] as the compound, how does the IC50 [1] read?
The IC50 was < 5 µM.

With O=S(=O)(c1ccccc1C(F)(F)F)N(CCCNc1nsc2ccccc12)Cc1ccccc1 [Compound 254, N-(3-(benzo[d]isothiazol-3-ylamino)propyl)-N-benzyl-2-(trifluoromethyl)benzenesulfonamide] as the compound, how does the IC50 [1] read?
Its IC50 is < 5 µM.

COc1ccc(-c2ccc(CN(CCCNc3nsc4ccccc34)C(=O)CN3CCOCC3)cc2)cc1 [Compound 255, N-(3-(benzo[d]isothiazol-3-ylamino)propyl)-N-((4′-methoxybiphenyl-4-yl)methyl)-2-morpholinoacetamide] was tested. Which IC50 [1] did it give?
Its IC50 is < 5 µM.

With COc1ccc(-c2ccc(CN(CCCNc3nsc4ccccc34)C(=O)CN3CCN(c4ccccc4)CC3)cc2)cc1 [Compound 256, N-(3-(benzo[d]isothiazol-3-ylamino)propyl)-N-((4′-methoxybiphenyl-4-yl)methyl)-2-(4-phenylpiperazin-1-yl)acetamide] as the compound, how does the IC50 [1] read?
Its IC50 is < 5 µM.

For COc1ccc(-c2ccc(CN(CCCNc3nsc4ccccc34)C(=O)CNC(C)C)cc2)cc1 [Compound 257, N-(3-(benzo[d]isothiazol-3-ylamino)propyl)-2-(isopropylamino)-N-((4′-methoxybiphenyl-4-yl)methyl)acetamide], which IC50 [1] is on record?
Its IC50 is < 5 µM.

COc1ccc(NS(=O)(=O)c2ccc(CNCCCNc3nsc4ccccc34)cc2)cc1 [Compound 258, 4-((3-(benzo[d]isothiazol-3-ylamino)propylamino)methyl)-N-(4-methoxyphenyl)benzenesulfonamide] was tested. Which IC50 [1] did it give?
The IC50 was < 5 µM.

How did the IC50 [1] turn out when O=S(=O)(c1ccc(CNCCCNc2nsc3ccccc23)cc1)N1CCOCC1 [Compound 259, N^1-(benzo[d]isothiazol-3-yl)-N^3-(4-(morpholinosulfonyl)benzyl)propane-1,3-diamine] was run?
Its IC50 is > 5 µM.

O=S(=O)(c1ccc(CNCCCNc2nsc3ccccc23)cc1)N1CCCC1 [Compound 260, N^1-(benzo[d]isothiazol-3-yl)-N^3-(4-(pyrrolidin-1-ylsulfonyl)benzyl)propane-1,3-diamine] was tested. Which IC50 [1] did it give?
The IC50 was > 5 µM.

For COc1ccc(OC)c(S(=O)(=O)NCCCNc2nsc3ccccc23)c1 [Compound 261, N-(3-(benzo[d]isothiazol-3-ylamino)propyl)-2,5-dimethoxybenzenesulfonamide], which IC50 [1] is on record?
Its IC50 is < 5 µM.

With O=S(=O)(NCCCNc1nsc2ccccc12)c1ccc(Br)cc1Cl [Compound 262, N-(3-(benzo[d]isothiazol-3-ylamino)propyl)-4-bromo-2-chlorobenzenesulfonamide] as the compound, how does the IC50 [1] read?
Its IC50 is < 5 µM.

How did the IC50 [1] turn out when O=S(=O)(NCCCNc1nsc2ccccc12)c1ccc(Br)cc1C(F)(F)F [Compound 263, N-(3-(benzo[d]isothiazol-3-ylamino)propyl)-4-bromo-2-(trifluoromethyl)benzenesulfonamide] was run?
The IC50 was < 5 µM.

For COc1ccc(S(=O)(=O)NCCCNc2nsc3ccccc23)cc1OC [Compound 264, N-(3-(benzo[d]isothiazol-3-ylamino)propyl)-3,4-dimethoxybenzenesulfonamide], which IC50 [1] is on record?
The IC50 was < 5 µM.

Which IC50 [1] does the source give for Cc1cc(S(=O)(=O)NCCCNc2nsc3ccccc23)ccc1Br [Compound 265, N-(3-(benzo[d]isothiazol-3-ylamino)propyl)-4-bromo-3-methylbenzenesulfonamide] here?
The IC50 was < 5 µM.

How did the IC50 [1] turn out when O=S(=O)(NCCCNc1nsc2ccccc12)c1cccc(OC(F)(F)F)c1 [Compound 266, N-(3-(benzo[d]isothiazol-3-ylamino)propyl)-3-(trifluoromethoxy)benzenesulfonamide] was run?
Its IC50 is < 5 µM.

How did the IC50 [1] turn out when O=S(=O)(NCCCNc1nsc2ccccc12)c1c(Cl)cc(Br)cc1Cl [Compound 267, N-(3-(benzo[d]isothiazol-3-ylamino)propyl)-4-bromo-2,6-dichlorobenzenesulfonamide] was run?
Its IC50 is < 5 µM.

With O=S(=O)(NCCCNc1nsc2ccccc12)c1cccc(Br)c1 [Compound 268, N-(3-(benzo[d]isothiazol-3-ylamino)propyl)-3-bromobenzenesulfonamide] as the compound, how does the IC50 [1] read?
The IC50 was < 5 µM.

O=S(=O)(NCCCNc1nsc2ccccc12)c1ccc(Br)c(C(F)(F)F)c1 [Compound 269, N-(3-(benzo[d]isothiazol-3-ylamino)propyl)-4-bromo-3-(trifluoromethyl)benzenesulfonamide] was tested. Which IC50 [1] did it give?
The IC50 was < 5 µM.

Which IC50 [1] does the source give for COc1ccc(-c2ccc(CN(CCCNc3nsc4ccccc34)S(=O)(=O)c3ccccc3C(F)(F)F)cc2)cc1 [Compound 270, N-(3-(benzo[d]isothiazol-3-ylamino)propyl)-N-((4′-methoxybiphenyl-4-yl)methyl)-2-(trifluoromethyl)benzenesulfonamide] here?
The IC50 was < 5 µM.

Which IC50 [2] does the source give for O=S(=O)(NCCNc1nsc2ccccc12)c1ccc(Cl)cc1 [Compound 271, N-(2-(benzo[d]isothiazol-3-ylamino)ethyl)-4-chlorobenzenesulfonamide] here?
The IC50 was “A, B”.

How did the IC50 [2] turn out when c1ccc(CNCCNc2nsc3ccccc23)nc1 [Compound 272, N^1-(benzo[d]isothiazol-3-yl)-N^2-(pyridin-2-ylmethyl)ethane-1,2-diamine] was run?
Its IC50 is “A, B”.

Which IC50 [1] does the source give for CCCc1ccc(C(=O)NCCCNc2nsc3ccccc23)cc1 [Compound 273, N-(3-(benzo[d]isothiazol-3-ylamino)propyl)-4-propylbenzamide] here?
The IC50 was < 5 µM.

COc1cccnc1NCCCNc1nsc2ccccc12 [Compound 275, N^1-(benzo[d]isothiazol-3-yl)-N^3-(3-methoxypyridin-2-yl)propane-1,3-diamine] was tested. Which IC50 [1] did it give?
Its IC50 is < 5 µM.

How did the IC50 [1] turn out when FC(F)(F)c1cccnc1NCCCNc1nsc2ccccc12 [Compound 276, N^1-(benzo[d]isothiazol-3-yl)-N^3-(3-(trifluoromethyl)pyridin-2-yl)propane-1,3-diamine] was run?
The IC50 was < 5 µM.

For N#Cc1cccnc1NCCCNc1nsc2ccccc12 [Compound 277, 2-(3-(benzo[d]isothiazol-3-ylamino)propylamino)nicotinonitrile], which IC50 [1] is on record?
The IC50 was < 5 µM.

Which IC50 [1] does the source give for Cc1cccnc1NCCCNc1nsc2ccccc12 [Compound 278, N^1-(benzo[d]isothiazol-3-yl)-N^3-(3-methylpyridin-2-yl)propane-1,3-diamine] here?
The IC50 was < 5 µM.

CCCCc1ccc(C(=O)NCCNc2nsc3ccccc23)nc1 [Compound 279, N-(2-(benzo[d]isothiazol-3-ylamino)ethyl)-5-butylpicolinamide] was tested. Which IC50 [1] did it give?
Its IC50 is < 5 µM.

How did the IC50 [1] turn out when CCCCc1ccc(C(=O)NC(CNc2nsc3ccccc23)C(=O)O)cc1 (stereo not shown) [Compound 280, 3-(benzo[d]isothiazol-3-ylamino)-2-(4-butylbenzamido)propanoic acid] was run?
Its IC50 is > 5 µM.

With Cc1cccc(NCCCNc2nsc3ccccc23)n1 [Compound 281, N^1-(benzo[d]isothiazol-3-yl)-N^3-(6-methylpyridin-2-yl)propane-1,3-diamine] as the compound, how does the IC50 [1] read?
Its IC50 is < 5 µM.

How did the IC50 [1] turn out when COc1ccc(NCCCNc2nsc3ccccc23)nc1 [Compound 282, N^1-(benzo[d]isothiazol-3-yl)-N^3-(5-methoxypyridin-2-yl)propane-1,3-diamine] was run?
Its IC50 is < 5 µM.

How did the IC50 [1] turn out when COc1cccc(NCCCNc2nsc3ccccc23)n1 [Compound 283, N^1-(benzo[d]isothiazol-3-yl)-N^3-(6-methoxypyridin-2-yl)propane-1,3-diamine] was run?
Its IC50 is < 5 µM.
